Measured values taken from ChEMBL document CHEMBL1137091, “Carbonic anhydrase inhibitors. Design of selective, membrane-impermeant inhibitors targeting the human tumor-associated isozyme IX” (J Med Chem, 2004).

Legend:
[1] = species: Homo sapiens; assay: Percentage inhibition for the inhibition of Cl-/NO3- exchange measured for AE1 transfected cells (before and after treatment with CAI); assay type: functional
[2] = species: Homo sapiens; assay: Relative transport activity for the inhibition of Cl-/NO3- exchange measured for AE1 transfected cells (before and after treatment with CAI); assay type: functional
[3] = species: Homo sapiens; assay: Inhibitory concentration for the half maximal inhibition of Cl-/NO3- exchange measured for AE1 transfected cells (before and after treatment with CAI); assay type: functional
[4] = biological target: T1, Carbonic anhydrase 4 (Bos taurus, UniProt Q95323)
T1 sequence (Q95323 whole entry): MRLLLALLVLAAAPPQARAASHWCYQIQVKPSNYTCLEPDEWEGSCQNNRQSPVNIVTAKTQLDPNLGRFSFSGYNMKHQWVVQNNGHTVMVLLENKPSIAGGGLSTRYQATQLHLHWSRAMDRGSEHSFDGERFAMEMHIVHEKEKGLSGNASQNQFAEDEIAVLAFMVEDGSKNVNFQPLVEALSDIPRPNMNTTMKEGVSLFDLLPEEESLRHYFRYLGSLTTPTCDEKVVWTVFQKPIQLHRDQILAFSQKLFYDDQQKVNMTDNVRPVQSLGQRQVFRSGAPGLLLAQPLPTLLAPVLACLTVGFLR
Description: Inhibition constant evaluated for the inhibition of bovine CA IV (Carbonic anhydrase IV)

[5] = biological target: Carbonic anhydrase 9 (Homo sapiens, UniProt Q16790)
Description: Inhibition constant evaluated for the inhibition of human CA IX (Carbonic anhydrase IX)

[6] = biological target: Carbonic anhydrase 2 (Homo sapiens, UniProt P00918)
Description: Inhibition constant evaluated for the inhibition of human CA II (Carbonic anhydrase II)

[7] = biological target: Carbonic anhydrase 1 (Homo sapiens, UniProt P00915)
Chain of Carbonic anhydrase 1 (P00915 whole entry): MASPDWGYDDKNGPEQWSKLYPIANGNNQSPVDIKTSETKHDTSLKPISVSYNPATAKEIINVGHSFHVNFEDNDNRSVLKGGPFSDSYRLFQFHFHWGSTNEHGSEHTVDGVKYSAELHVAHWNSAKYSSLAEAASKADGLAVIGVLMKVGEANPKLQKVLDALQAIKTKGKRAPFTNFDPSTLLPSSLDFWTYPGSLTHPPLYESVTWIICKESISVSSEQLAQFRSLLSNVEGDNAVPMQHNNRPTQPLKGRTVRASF
Description: Inhibition constant evaluated for the inhibition of human CA I (Carbonic anhydrase I)

| Compound | Inhibition [1] [%] | Activity [2] | IC50 [3] [µM] | Ki [4] [µM] | Ki [5] [µM] | Ki [6] [µM] | Ki [7] [µM] |
| --- | --- | --- | --- | --- | --- | --- | --- |
| CCCCc1cc(-c2ccccc2)cc(CCCC)[n+]1-c1ccc(S(=O)(=O)Nc2nnc(S(N)(=O)=O)s2)cc1.[O-][Cl+3]([O-])([O-])[O-] | 34 | 0.709 | 1510 | – | – | – | – |
| Cc1c2cc(c(C)[n+]1-c1ccc(S(=O)(=O)Nc3nnc(S(N)(=O)=O)s3)cc1)CCCCCCCCC2.[O-][Cl+3]([O-])([O-])[O-] | – | 1 | – | 0.0046 | 0.012 | 0.00137 | 0.003 |
| CCCc1cc(-c2ccccc2)cc(CCC)[n+]1-c1ccc(S(=O)(=O)Nc2nnc(S(N)(=O)=O)s2)cc1.[O-][Cl+3]([O-])([O-])[O-] | 32 | 0.651 | 126 | – | – | – | – |
